From patent publication US8992982B2, “Formulation of indomethacin” (Iceutica Pty Ltd., priority 2009, dated 2015)

Assays:
[1] = system: pain after surgical removal of impacted third molars; assay: Phase 2 dental pain study: VAS pain intensity (VAS score, VASPID, VASSPID); type: in vivo, human; set-up: VASPID, Median / VASPID, Mean / VAS pain intensity score, Median / VASSPID-8, Median: scale not given here
Protocol: On Day 1, eligible subjects underwent extraction of 2 or more third molars, at least 1 of which had to be a fully or partially bone-impacted mandibular molar. If only 2 molars were removed, then they had to be ipsilateral.
(§1) Subjects assessed their baseline pain intensity (VAS) before receiving study drug (predose, Time 0) and their pain intensity (VAS) and pain relief (5-point categorical scale) at 15, 30, and 45 minutes and 1, 1.5, 2, 3, 4, 5, 6, 7, and 8 hours after Time 0 and immediately before the first dose of rescue medication. The 2-stopwatch method was used to record the time to perceptible and time to meaningful pain relief, respectively. Acetaminophen (1000 mg) was permitted as the initial rescue medication. Subjects were encouraged to wait at least 60 minutes after receiving study drug before taking rescue medication. […] Other restrictions included the following: no alcohol use from 24 hours before surgery until discharge on Day 1; nothing by mouth (NPO) from midnight before surgery until 1 hour after surgery; clear liquids only from 1 hour after surgery until 1 hour after dosing; and advancement of diet 1 hour after dosing according to standard practice.
(§2) The secondary efficacy endpoints were as follows: • TOTPAR over 0 to 4 hours (TOTPAR-4) after Time 0 • Visual Analogue Scale (VAS) pain intensity difference (VASPID) at each scheduled time point after Time 0 • Time to onset of analgesia (measured as time to perceptible pain relief confirmed by meaningful pain relief) • VAS pain intensity score at each scheduled time point • VAS summed pain intensity difference (VASSPID) over 0 to 4 hours (VASSPID-4) and over 0 to 8 hours (VASSPID-8) after Time 0 • Pain relief score at each scheduled time point after Time 0 • Peak pain relief • Time to peak pain relief • Time to first perceptible pain relief • Time to meaningful pain relief • Proportion of subjects using rescue medication • Time to first use of rescue medication (duration of analgesia) • Patient's global evaluation of study drug Safety:
For continuous secondary endpoints such as pain intensity score, VASPID at each scheduled time point, peak pain intensity, TOTPAR-4, VASSPID-4, and VASSPID-8, descriptive statistics (e.g., mean, standard error, median, minimum, and maximum) were provided for each treatment regimen. Nominal P values from 2-sample tests comparing the placebo group with other treatment groups were provided, but no formal statistical inferences were drawn on the basis of these tests.
For pain intensity, missing observations were imputed using a baseline-observation-carried-forward (BOCF) approach for subjects who withdrew from the study due to lack of efficacy or an AE/intolerance to study drug. The BOCF imputation was applied in place of all scheduled assessments after the time of early termination due to lack of efficacy or an AE/intolerance to study drug using the baseline observation taken before Time 0.
For subjects who withdrew from the study for reasons other than lack of efficacy or an AE/intolerance to study drug, missing observations for pain intensity and pain relief were imputed using a last-observation-carried-forward (LOCF) approach. The LOCF imputation was applied in place of all scheduled assessments after the time of early termination for reasons other than lack of efficacy or an AE/intolerance to study drug.
For subjects who took any dose of rescue medication, subsequent measures after the first dose of rescue mediation were disregarded. Instead, all scheduled assessments after the first dose of rescue medication were imputed using BOCF and the baseline observation taken before Time 0. (Baseline value for pain relief was 0.)

[2] = system: pain after surgical removal of impacted third molars; assay: Phase 2 dental pain study: 2-stopwatch method (time to onset of analgesia, first perceptible and meaningful pain relief); type: in vivo, human; conditions: ITT
Protocol: as §1, §2
For each time-to-event endpoint, the Kaplan-Meier method was used to evaluate the treatment effect. Time to onset of analgesia (measured as time to perceptible pain relief confirmed by meaningful pain relief) was based on data collected using the 2-stopwatch method. […] A summary table provided the number of subjects analyzed, the number of subjects censored, estimates for the quartiles, and 95% confidence intervals (CIs) for the estimated median. P values from log-rank tests were also used to examine treatment effect. Cox proportional hazard models were used to explore potential covariates such as sex, baseline pain intensity, and surgical trauma rating, if appropriate.

[3] = 15 minutes after Time 0, ITT, 100-mm VAS

Structure (SMILES): Cc1ccc(-c2cc(C(F)(F)F)nn2-c2ccc(S(N)(=O)=O)cc2)cc1 [Celecoxib]
- VASSPID-4, Mean (SD) ([1]; 0 to 4 hours after Time 0, ITT): 127.971 (99.1934)
- VASSPID-4, Median ([1]; 0 to 4 hours after Time 0, ITT): 140.250
- VASSPID-8, Mean (SD) ([1]; 0 to 8 hours after Time 0, ITT): 284.265 (229.4447)
- VASSPID-8, Median ([1]; 0 to 8 hours after Time 0, ITT): 346.500
- VAS pain intensity score, Median ([1]; 15 minutes after Time 0, ITT): 71.00
- VASPID, Median ([1]; 15 minutes after Time 0, ITT): 1.00
- VAS pain intensity score, Mean [1, 3]: 70.55
- VASPID, Mean [1, 3]: 3.35
- VAS pain intensity score, Mean ([1]; 30 minutes after Time 0, ITT): 67.25
- VAS pain intensity score, Median ([1]; 30 minutes after Time 0, ITT): 66.00
- VASPID, Mean ([1]; 30 minutes after Time 0, ITT): 6.65
- VASPID, Median ([1]; 30 minutes after Time 0, ITT): 3.00
- VAS pain intensity score, Mean ([1]; 45 minutes after Time 0, ITT): 57.47
- VAS pain intensity score, Median ([1]; 45 minutes after Time 0, ITT): 61.00
- VASPID, Mean ([1]; 45 minutes after Time 0, ITT): 16.43
- VASPID, Median ([1]; 45 minutes after Time 0, ITT): 10.00
- VAS pain intensity score, Mean ([1]; 1 hour after Time 0, ITT): 49.08
- VAS pain intensity score, Median ([1]; 1 hour after Time 0, ITT): 50.00
- VASPID, Mean ([1]; 1 hour after Time 0, ITT): 24.82
- VASPID, Median ([1]; 1 hour after Time 0, ITT): 17.00
- VAS pain intensity score, Mean ([1]; 2 hours after Time 0, ITT): 36.65
- VAS pain intensity score, Median ([1]; 2 hours after Time 0, ITT): 36.00
- VASPID, Mean ([1]; 2 hours after Time 0, ITT): 37.25
- VASPID, Median ([1]; 2 hours after Time 0, ITT): 32.00
- VAS pain intensity score, Mean ([1]; 3 hours after Time 0, ITT): 32.29
- VAS pain intensity score, Median ([1]; 3 hours after Time 0, ITT): 28.00
- VASPID, Mean ([1]; 3 hours after Time 0, ITT): 41.61
- VASPID, Median ([1]; 3 hours after Time 0, ITT): 50.00
- VAS pain intensity score, Mean ([1]; 4 hours after Time 0, ITT): 33.94
- VAS pain intensity score, Median ([1]; 4 hours after Time 0, ITT): 25.00
- VASPID, Mean ([1]; 4 hours after Time 0, ITT): 39.96
- VASPID, Median ([1]; 4 hours after Time 0, ITT): 46.00
- VAS pain intensity score, Mean ([1]; 5 hours after Time 0, ITT): 33.69
- VAS pain intensity score, Median ([1]; 5 hours after Time 0, ITT): 22.00
- VASPID, Mean ([1]; 5 hours after Time 0, ITT): 40.22
- VASPID, Median ([1]; 5 hours after Time 0, ITT): 50.00
- VAS pain intensity score, Mean ([1]; 6 hours after Time 0, ITT): 35.06
- VAS pain intensity score, Median ([1]; 6 hours after Time 0, ITT): 20.00
- VASPID, Mean ([1]; 6 hours after Time 0, ITT): 38.84
- VASPID, Median ([1]; 6 hours after Time 0, ITT): 50.00
- VAS pain intensity score, Mean ([1]; 7 hours after Time 0, ITT): 35.55
- VAS pain intensity score, Median ([1]; 7 hours after Time 0, ITT): 21.00
- VASPID, Mean ([1]; 7 hours after Time 0, ITT): 38.35
- VASPID, Median ([1]; 7 hours after Time 0, ITT): 44.00
- VAS pain intensity score, Mean ([1]; 8 hours after Time 0, ITT): 35.02
- VAS pain intensity score, Median ([1]; 8 hours after Time 0, ITT): 22.0
- VASPID, Mean ([1]; 8 hours after Time 0, ITT): 38.88
- VASPID, Median ([1]; 8 hours after Time 0, ITT): 49.00
- VAS pain intensity score, Mean ([1]; […] after Time 0, ITT): 43.98
- VAS pain intensity score, Median ([1]; […] after Time 0, ITT): 48.00
- VASPID, Mean ([1]; […] after Time 0, ITT): 29.92
- VASPID, Median ([1]; […] after Time 0, ITT): 26.00
- Time point from which mean VASPID was statistically significantly greater and mean VAS pain intensity less than placebo ([1]; onward after Time 0): ≥ 30 min
- Hazard ratio vs placebo, Cox proportional hazards model (time to first perceptible pain relief) ([2]; 400 mg): 1.7
- Hazard ratio vs placebo, Cox proportional hazards model (time to meaningful pain relief) ([2]; 400 mg): 3.2
- Time to first perceptible pain relief: subjects analyzed, % ([2]; 400 mg): (92.2) %
- Time to first perceptible pain relief: subjects censored, % ([2]; 400 mg): (7.8) %
- Time to meaningful pain relief: subjects analyzed, % ([2]; 400 mg): (68.6) %
- Time to meaningful pain relief: subjects analyzed, n ([2]; 400 mg): 35
- Time to meaningful pain relief: subjects censored, % ([2]; 400 mg): (31.4) %
- Time to meaningful pain relief: subjects censored, n ([2]; 400 mg): 16
- Time to onset of analgesia, Hazard ratio ([2]; Cox proportional hazards model, vs placebo): 4.4
- Time to onset of analgesia: subjects analyzed [2]: (68.6) %
- Time to first perceptible pain relief, Mean ([2]; Kaplan-Meier estimate, 400 mg): 0.9 h
- Time to first perceptible pain relief, Q25 ([2]; Kaplan-Meier estimate, 400 mg): 0.35 h
- Time to first perceptible pain relief, Q50 ([2]; Kaplan-Meier estimate, 400 mg): 0.60 h
- Time to first perceptible pain relief, Q75 ([2]; Kaplan-Meier estimate, 400 mg): 0.97 h
- Time to meaningful pain relief, Mean ([2]; Kaplan-Meier estimate, 400 mg): 2.6 h
- Time to meaningful pain relief, Q25 ([2]; Kaplan-Meier estimate, 400 mg): 0.75 h
- Time to meaningful pain relief, Q50 ([2]; Kaplan-Meier estimate, 400 mg): 1.33 h
- Time to meaningful pain relief, Q75 ([2]; Kaplan-Meier estimate, 400 mg): 4.27 h
- Time to onset of analgesia, Mean ([2]; Kaplan-Meier estimate): 0.9 h
- Time to onset of analgesia, Q25 ([2]; Kaplan-Meier estimate): 0.38 h
- Time to onset of analgesia, Q50 ([2]; Kaplan-Meier estimate): 0.72 h
- Time to onset of analgesia: subjects censored ([2]; right-censored at 8 hours): (31.4) %
